{
  "source": "patent US20090010910A1",
  "about": "“COMPOSITIONS AND METHODS FOR DERMATOLOGICAL WOUND HEALING” (MEDIWOUND LTD., priority 2004, published 2009)",
  "system": "burn eschar (deep thermal burn)",
  "assay": "In vivo eschar debridement test in swine model (radiant-heat deep thermal burn, 4-hour application, visual assessment score)",
  "design": "species or system young domestic pig (Landrace×Large Whites juvenile swine)",
  "excerpt": "This study assessed the eschar-debriding activity of the debriding composition in vivo using an animal model of young domestic pig (Landrace×Large Whites juvenile swine) 22 Kg±2 Kg, bearing deep thermal burn. […] In order to create test conditions burns were inflicted in fully anesthetized animals, in a dorsal test area, by a radiant heat device creating wounds of about 4.5×4.5 cm^2. The treatment consisted of a 4-hour application of the debriding composition following by cleansing of the wound. Visual evaluation of the wound and extent of debridement is carried out by photographical documentation of the burn was performed before and after the debriding treatment. The results were expressed using debridement visual assessment scoring (VAS) scale of 1 to 5 as follows:\nThe model was a radiant-heat thermal burn in an anesthetized young domestic pig. In order to create test conditions which are in accordance with the therapeutic use of the test article, deep dermal and full thickness burns were inflicted in all animals by applying a radiant heat device to the back to cover an area of approximately 3% TBSA (4.5×4.5 cm) for each burn. A gross evaluation of the debriding activity of the test article (the amount of eschar removed) was assessed and photographically documented. […]",
  "data": [
    {"smiles": "O=[N+]([O-])[O-].[Ag+]", "note": "[AgNO3]", "values": [
      {"measurement": "debridement by semi solid cake of debriding agent reconstituted with hydrating gel plus antiseptic", "setting": "AgNO3 (0.5%), FIG. 1", "value": "performs debridement"},
      {"measurement": "difference in morphology of debrided burns between areas treated with debriding mixture comprising the antiseptic", "setting": "FIG. 1, areas 10-12 (Silverol™) versus 14-15 (AgNO3), after cleaning dissolved eschar", "value": "No significant difference"}
    ]}
  ]
}
